What follows are compounds tested against T1, human CCR6 (Homo sapiens, UniProt P51684) (assay: FLIPR assay (inhibition of CCL20-induced calcium signal)). Conditions: HEK-293 cells expressing human CCR6; mean values where determined several times; read-out: FLIPR IC50.
T1 construct: expressed in transfected cells; host or cells: HEK-293
T1 sequence (P51684 1-374): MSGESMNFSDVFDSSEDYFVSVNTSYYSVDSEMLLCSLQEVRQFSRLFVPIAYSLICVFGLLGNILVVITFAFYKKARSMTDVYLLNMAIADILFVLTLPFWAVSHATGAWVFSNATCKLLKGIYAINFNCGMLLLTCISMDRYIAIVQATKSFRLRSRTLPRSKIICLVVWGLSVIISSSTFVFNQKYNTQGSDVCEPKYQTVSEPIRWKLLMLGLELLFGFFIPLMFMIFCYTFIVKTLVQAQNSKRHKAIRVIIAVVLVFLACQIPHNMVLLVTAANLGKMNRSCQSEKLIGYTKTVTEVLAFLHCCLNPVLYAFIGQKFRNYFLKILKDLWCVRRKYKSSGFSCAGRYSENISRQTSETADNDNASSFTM
Type: cell-based
How it was run: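 Dye-loaded HEK-293 cells expressing human CCR6 were preincubated with compound for 30 min at room temperature in the dark, then challenged with 10 nM CCL20 (final). Fluorescence was tracked on FLIPR, and baseline-subtracted peak emission over base after agonist addition gave inhibition dose-response curves for IC50.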
An IC50 of 112 nM was found for `CC(C)c1ccc([C@](O)(c2cncc(-c3noc(C4CCC(=O)N(C)C4)n3)c2)C2(C)CN(C)C2)cc1` (stereo partly drawn) [Example 479, 5-(3-{5-[(R)-(1,3-Dimethyl-azetidin-3-yl)-hydroxy-(4-isopropyl-phenyl)-methyl]-pyridin-3-yl}-[1,2,4]oxadiazol-5-yl)-1-methyl-piperidin-2-one] in this work.
An IC50 of 128 nM was found for `CC(C)c1ccc([C@](O)(c2cncc(-c3noc(C4(C)CCC(=O)NC4)n3)c2)C2(C)CN(C)C2)cc1` (stereo partly shown) [Example 480] in this work.
An IC50 of 184 nM was found for `CC(C)c1ccc([C@](O)(c2cncc(-c3noc(C4CCC(=O)NC4)n3)c2)C2(C)CN(C)C2)cc1` (stereo partly shown) [Example 481] in this work.
An IC50 of 92.3 nM was found for `CC(C)c1ccc([C@](O)(c2cncc(-c3noc(C4(C)CNC(=O)C4)n3)c2)C2(C)CN(C)C2)cc1` (stereo partly shown) [Example 482] in this work.
An IC50 of 73.1 nM was found for `CC(C)c1ccc([C@](O)(c2cncc(-c3noc(CN4C(=O)CC(C)(C)C4=O)n3)c2)C2(C)CN(C)C2)cc1` [Example 483] in this work.
An IC50 of 593 nM was found for `CC(C)c1ccc([C@](O)(c2cncc(-c3noc(CN4CC(=O)NC4=O)n3)c2)C2(C)CN(C)C2)cc1` [Example 484] in this work.
An IC50 of 259 nM was found for `CC(C)c1ccc([C@](O)(c2cncc(-c3noc(CN4CCCC4=O)n3)c2)C2(C)CN(C)C2)cc1` [Example 485] in this work.
An IC50 of 287 nM was found for `CC(C)c1ccc([C@](O)(c2cncc(-c3noc(CN4C(=O)CNC4=O)n3)c2)C2(C)CN(C)C2)cc1` [Example 486] in this work.
An IC50 of 248 nM was found for `CC(C)c1ccc([C@](O)(c2cncc(-c3noc(CN4C(=O)CN(C)C4=O)n3)c2)C2(C)CN(C)C2)cc1` [Example 487] in this work.
An IC50 of 382 nM was found for `CC(C)c1ccc([C@](O)(c2cncc(-c3noc(CN4CC(=O)N(C)C4=O)n3)c2)C2(C)CN(C)C2)cc1` [Example 488] in this work.
An IC50 of 135 nM was found for `CC(C)c1ccc([C@](O)(c2cncc(-c3noc(CN4CCOC4=O)n3)c2)C2(C)CN(C)C2)cc1` [Example 489] in this work.
An IC50 of 143 nM was found for `CC(C)c1ccc([C@](O)(c2cncc(-c3noc(CN4CCN(C5CC5)C4=O)n3)c2)C2(C)CN(C)C2)cc1` [Example 490] in this work.
An IC50 of 172 nM was found for `CC(C)c1ccc([C@](O)(c2cncc(-c3noc(CN4C(=O)CCC4=O)n3)c2)C2(C)CN(C)C2)cc1` [Example 491] in this work.
An IC50 of 267 nM was found for `CC(C)c1ccc([C@](O)(c2cncc(-c3noc(CN4CCN(C)C4=O)n3)c2)C2(C)CN(C)C2)cc1` [Example 492] in this work.
An IC50 of 185 nM was found for `CC(C)c1ccc([C@](O)(c2cncc(-c3noc(CN4CCNC4=O)n3)c2)C2(C)CN(C)C2)cc1` [Example 493] in this work.
An IC50 of 240 nM was found for `CC(C)c1ccc([C@](O)(c2cncc(-c3noc(C(C)(O)CO)n3)c2)C2(C)CN(C)C2)cc1` (stereo partly shown) [Example 494] in this work.
An IC50 of 20.9 nM was found for `CC(C)c1ccc([C@](O)(c2cncc(-c3noc(-c4cccnc4)n3)c2)C2(C)CN(C)C2)cc1` [Example 495] in this work.
An IC50 of 69.7 nM was found for `CC(=O)N1CCC(Cc2nc(-c3cncc([C@@](O)(c4ccc(C(C)C)cc4)C4(C)CN(C)C4)c3)no2)CC1` [Example 496] in this work.
An IC50 of 74.3 nM was found for `CC(C)c1ccc([C@](O)(c2cncc(-c3noc(CC#N)n3)c2)C2(C)CN(C)C2)cc1` [Example 497] in this work.
An IC50 of 234 nM was found for `CC(=O)N1CCC(O)(c2nc(-c3cncc([C@@](O)(c4ccc(C(C)C)cc4)C4(C)CN(C)C4)c3)no2)CC1` [Example 498, 1-[4-(3-{5-[(R)-(1,3-Dimethyl-azetidin-3-yl)-hydroxy-(4-isopropyl-phenyl)-methyl]-pyridin-3-yl}-[1,2,4]oxadiazol-5-yl)-4-hydroxy-piperidin-1-yl]-ethanone] in this work.
An IC50 of 53.8 nM was found for `CC(C)c1ccc([C@](O)(c2cncc(-c3noc(CCC#N)n3)c2)C2(C)CN(C)C2)cc1` [Example 499, 3-(3-{5-[(R)-(1,3-Dimethyl-azetidin-3-yl)-hydroxy-(4-isopropyl-phenyl)-methyl]-pyridin-3-yl}-[1,2,4]oxadiazol-5-yl)-propionitrile] in this work.
An IC50 of 149 nM was found for `COC1CN(C(C)=O)CCC1c1nc(-c2cncc([C@@](O)(c3ccc(C(C)C)cc3)C3(C)CN(C)C3)c2)no1` (stereo partly drawn) [Example 500, 1-[4-(3-{5-[(R)-(1,3-Dimethyl-azetidin-3-yl)-hydroxy-(4-isopropyl-phenyl)-methyl]-pyridin-3-yl}-[1,2,4]oxadiazol-5-yl)-3-methoxy-piperidin-1-yl]-ethanone] in this work.
An IC50 of 108 nM was found for `CC(=O)N1CCC[C@@H](c2nc(-c3cncc([C@@](O)(c4ccc(C(C)C)cc4)C4(C)CN(C)C4)c3)no2)C1` [Example 501, 1-[(R)-3-(3-{5-[(R)-(1,3-Dimethyl-azetidin-3-yl)-hydroxy-(4-isopropyl-phenyl)-methyl]-pyridin-3-yl}-[1,2,4]oxadiazol-5-yl)-piperidin-1-yl]-ethanone] in this work.
An IC50 of 65.8 nM was found for `CC(C)c1ccc([C@](O)(c2cncc(-c3noc(C4(O)CCOCC4)n3)c2)C2(C)CN(C)C2)cc1` [Example 502] in this work.
An IC50 of 51.1 nM was found for `CC(C)c1ccc([C@](O)(c2cncc(-c3noc(C45CC(CO)(C4)C5)n3)c2)C2(C)CN(C)C2)cc1` [Example 503] in this work.
An IC50 of 143 nM was found for `CC(C)c1ccc([C@](O)(c2cncc(-c3noc(C4CC(=O)N(C)C(=O)C4)n3)c2)C2(C)CN(C)C2)cc1` [Example 504] in this work.
An IC50 of 35.9 nM was found for `CC(C)c1ccc([C@](O)(c2cncc(-c3noc(C(F)(F)CO)n3)c2)C2(C)CN(C)C2)cc1` [Example 505] in this work.
An IC50 of 24 nM was found for `COc1cccc(-c2nc(-c3cncc([C@@](O)(c4ccc(C(C)C)cc4)C4(C)CN(C)C4)c3)no2)c1` [Example 506] in this work.
An IC50 of 32.7 nM was found for `CC(C)c1ccc([C@](O)(c2cncc(-c3noc(C(C)C)n3)c2)C2(C)CN(C)C2)cc1` [Example 507] in this work.
An IC50 of 49.1 nM was found for `Cc1cc(-c2nc(-c3cncc([C@@](O)(c4ccc(C(C)C)cc4)C4(C)CN(C)C4)c3)no2)ncn1` [Example 508] in this work.
An IC50 of 142 nM was found for `CC(=O)N1CC[C@@H](Cc2nc(-c3cncc([C@@](O)(c4ccc(C(C)C)cc4)C4(C)CN(C)C4)c3)no2)C1` [Example 514] in this work.
An IC50 of 63.5 nM was found for `Cc1nc(-c2cncc([C@@](O)(c3ccc(C(C)C)cc3)C3(C)CN(C)C3)c2)no1` [Example 517, (R)-(1,3-Dimethyl-azetidin-3-yl)-(4-isopropyl-phenyl)-[5-(5-methyl-[1,2,4]oxadiazol-3-yl)-pyridin-3-yl]-methanol] in this work.
An IC50 of 41.2 nM was found for `CC(C)c1ccc([C@](O)(c2cncc(-c3noc(C(C)(F)F)n3)c2)C2(C)CN(C)C2)cc1` [Example 518, (R)-{5-[5-(1,1-Difluoro-ethyl)-[1,2,4]oxadiazol-3-yl]-pyridin-3-yl}-(1,3-dimethyl-azetidin-3-yl)-(4-isopropyl-phenyl)-methanol] in this work.
An IC50 of 168 nM was found for `CC(C)c1ccc([C@](O)(c2cncc(-c3nc(C4(O)CCOCC4)no3)c2)C2(C)CN(C)C2)cc1` [Example 519, 4-(5-{5-[(R)-(1,3-Dimethyl-azetidin-3-yl)-hydroxy-(4-isopropyl-phenyl)-methyl]-pyridin-3-yl}-[1,2,4]oxadiazol-3-yl)-tetrahydro-pyran-4-ol] in this work.
An IC50 of 62.6 nM was found for `CC(C)c1ccc([C@](O)(c2cncc(-c3nc(COC(C)(C)C)no3)c2)C2(C)CN(C)C2)cc1` [Example 520] in this work.
An IC50 of 153 nM was found for `CC(C)c1ccc([C@](O)(c2cncc(-c3nc(CO)no3)c2)C2(C)CN(C)C2)cc1` [Example 521] in this work.
An IC50 of 119 nM was found for `CC(=O)N1CCN(c2noc(-c3cncc([C@@](O)(c4ccc(C(C)C)cc4)C4(C)CN(C)C4)c3)n2)CC1` [Example 522] in this work.
An IC50 of 297 nM was found for `CC(=O)N1CC(Cc2noc(-c3cncc([C@@](O)(c4ccc(C(C)C)cc4)C4(C)CN(C)C4)c3)n2)C1` [Example 523] in this work.
An IC50 of 178 nM was found for `CC(C)c1ccc([C@](O)(c2cncc(-c3nc(CC4(O)CCOCC4)no3)c2)C2(C)CN(C)C2)cc1` [Example 524, 4-(5-{5-[(R)-(1,3-Dimethyl-azetidin-3-yl)-hydroxy-(4-isopropyl-phenyl)-methyl]-pyridin-3-yl}-[1,2,4]oxadiazol-3-ylmethyl)-tetrahydro-pyran-4-ol] in this work.
An IC50 of 187 nM was found for `CC(C)c1ccc([C@](O)(c2cncc(-c3nc(C4CCN(C(=O)C5COCCO5)CC4)no3)c2)C2(C)CN(C)C2)cc1` (stereo partly drawn) [Example 525, [4-(5-{5-[(R)-(1,3-Dimethyl-azetidin-3-yl)-hydroxy-(4-isopropyl-phenyl)-methyl]-pyridin-3-yl}-[1,2,4]oxadiazol-3-yl)-piperidin-1-yl]-[1,4]dioxan-2-yl-methanone] in this work.
An IC50 of 171 nM was found for `COCC(=O)N1CCC(c2noc(-c3cncc([C@@](O)(c4ccc(C(C)C)cc4)C4(C)CN(C)C4)c3)n2)CC1` [Example 526, 1-[4-(5-{5-[(R)-(1,3-Dimethyl-azetidin-3-yl)-hydroxy-(4-isopropyl-phenyl)-methyl]-pyridin-3-yl}-[1,2,4]oxadiazol-3-yl)-piperidin-1-yl]-2-methoxy-ethanone] in this work.
An IC50 of 74.3 nM was found for `CC(C)c1ccc([C@](O)(c2cncc(-c3nc(C4CCN(S(C)(=O)=O)CC4)no3)c2)C2(C)CN(C)C2)cc1` [Example 527, (R)-(1,3-Dimethyl-azetidin-3-yl)-(4-isopropyl-phenyl)-{5-[3-(1-methanesulfonyl-piperidin-4-yl)-[1,2,4]oxadiazol-5-yl]-pyridin-3-yl}-methanol] in this work.
An IC50 of 66.9 nM was found for `COCCS(=O)(=O)N1CCC(c2noc(-c3cncc([C@@](O)(c4ccc(C(C)C)cc4)C4(C)CN(C)C4)c3)n2)CC1` [Example 528, (R)-(1,3-Dimethyl-azetidin-3-yl)-(4-isopropyl-phenyl)-(5-{3-[1-(2-methoxy-ethanesulfonyl)-piperidin-4-yl]-[1,2,4]oxadiazol-5-yl}-pyridin-3-yl)-methanol] in this work.

Source: patent US12617773B2, “Azetidin-3-ylmethanol derivatives as CCR6 receptor modulators” (Idorsia Pharmaceuticals Ltd, priority 2020, dated 2026)
